Results on five compounds are retold here after ChEMBL document CHEMBL5143608, “Peptide-based long-acting co-agonists of GLP-1 and cholecystokinin 1 receptors as novel anti-diabesity agents” (Eur J Med Chem, 2022).

Calls of active or inactive are those of the source. The calls are words filed in the database; no cut-off is given here. Where a SMILES comes first, the peptide text is derived from it. [ ]: non-standard residue; d: D form. Aib = CC(C)(N)C(=O)O

The target of data set [1] is T1, Cholecystokinin receptor type A (Homo sapiens, UniProt P32238).
T1 sequence (P32238 whole entry): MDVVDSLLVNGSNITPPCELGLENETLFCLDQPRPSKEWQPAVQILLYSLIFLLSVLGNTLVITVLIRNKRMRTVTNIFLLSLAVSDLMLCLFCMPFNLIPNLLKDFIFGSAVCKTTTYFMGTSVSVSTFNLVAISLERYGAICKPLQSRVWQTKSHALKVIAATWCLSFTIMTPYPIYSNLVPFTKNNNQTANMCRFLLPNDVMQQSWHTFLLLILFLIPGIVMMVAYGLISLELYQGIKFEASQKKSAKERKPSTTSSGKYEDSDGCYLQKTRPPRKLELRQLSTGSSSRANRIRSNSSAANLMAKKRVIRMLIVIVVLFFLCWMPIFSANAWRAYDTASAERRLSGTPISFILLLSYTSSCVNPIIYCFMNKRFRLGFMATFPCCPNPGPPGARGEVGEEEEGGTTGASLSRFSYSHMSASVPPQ
Put plainly: Agonist activity at human CCK1R expressed in HEK293 cells assessed as ERK1/2 phosphorylation incubated for 5 mins by AlphaScreen assay. The format is functional, cell-based. As to conditions: hek293.

Data set [2] concerns the target T2, CCK2R (gastrin/cholecystokinin type B receptor) (Homo sapiens, UniProt P32239).
T2 sequence (P32239 whole entry): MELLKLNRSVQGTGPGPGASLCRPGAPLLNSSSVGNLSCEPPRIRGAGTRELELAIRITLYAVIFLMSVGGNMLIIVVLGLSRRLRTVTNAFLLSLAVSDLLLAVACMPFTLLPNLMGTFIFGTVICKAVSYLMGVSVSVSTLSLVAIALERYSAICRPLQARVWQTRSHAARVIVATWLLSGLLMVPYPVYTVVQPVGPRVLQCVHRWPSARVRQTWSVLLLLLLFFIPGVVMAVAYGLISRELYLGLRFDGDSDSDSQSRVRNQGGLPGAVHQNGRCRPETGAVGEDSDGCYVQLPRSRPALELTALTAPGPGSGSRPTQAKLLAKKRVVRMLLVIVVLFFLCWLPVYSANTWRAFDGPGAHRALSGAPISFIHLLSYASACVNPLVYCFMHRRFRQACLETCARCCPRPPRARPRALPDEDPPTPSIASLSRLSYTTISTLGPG
The experiment in a line: Agonist activity at human CCK2R expressed in HEK293 cells assessed as ERK1/2 phosphorylation incubated for 5 mins by AlphaScreen assay. The conditions noted are these: human, HEK293 cells expressing human CCK2R. The format is functional, cell-based. (Alpha assays give light when donor and acceptor beads are brought close together.)

Data set [3] deals with Mus musculus. Put plainly: Anorectic activity in ICR mouse assessed as decrease in food intake at 25 nmol/kg, ip and measured after 9 hrs. The format is functional, organism-based.
In data set [4] the test system is Mus musculus. The experiment in a line: Anorectic activity in ICR mouse assessed as decrease in food intake at 25 nmol/kg, ip and measured after 24 hrs. Format: functional, organism-based.
Data set [5] has as its target Glucagon-like peptide 1 receptor (Homo sapiens, UniProt P43220). Put plainly: Agonist activity at human GLP-1R expressed in HEK293 cells assessed as cAMP release incubated for 20 min by HTRF analysis. The format is functional, cell-based.
The subject of data set [6] is Mus musculus. The experiment in a line: Hypoglycemic activity in ICR mouse assessed as improvement in glucose tolerance at 25 nmol/kg, ip administered 30 min before oral glucose administration and measured upto 120 mins by OGTT. Format: functional, organism-based.

Chain of Glucagon-like peptide 1 receptor (P43220 whole entry): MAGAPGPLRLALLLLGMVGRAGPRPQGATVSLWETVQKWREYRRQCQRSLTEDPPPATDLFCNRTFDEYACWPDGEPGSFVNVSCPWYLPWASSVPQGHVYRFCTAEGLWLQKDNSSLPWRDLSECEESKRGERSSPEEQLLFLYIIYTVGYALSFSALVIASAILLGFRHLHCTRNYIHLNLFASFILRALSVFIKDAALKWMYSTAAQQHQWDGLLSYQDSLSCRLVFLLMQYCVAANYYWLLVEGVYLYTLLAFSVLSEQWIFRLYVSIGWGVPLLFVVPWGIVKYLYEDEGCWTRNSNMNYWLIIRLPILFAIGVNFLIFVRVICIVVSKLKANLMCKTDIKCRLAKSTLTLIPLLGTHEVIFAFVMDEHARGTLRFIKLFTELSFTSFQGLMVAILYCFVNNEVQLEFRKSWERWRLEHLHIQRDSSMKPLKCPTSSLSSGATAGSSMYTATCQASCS

For orientation: EC50 means the midpoint of the concentration-response curve. `CCCC[C@H](NC(=O)[C@H](Cc1ccc(CS(=O)(=O)O)cc1)NC(=O)[C@H](CC(=O)O)NC(=O)COCCOCCNC(=O)COCCOCCNC(=O)[C@H](CCCNC(=N)N)NC(=O)CNC(=O)[C@H](CCCCNC(=O)COCCOCCNC(=O)COCCOCCNC(=O)CC[C@H](NC(=O)CCCCCCCCCCCCCCCCC(=O)O)C(=O)O)NC(=O)[C@@H](NC(=O)[C@H](CC(C)C)NC(=O)[C@H](Cc1c[nH]c2ccccc12)NC(=O)[C@H](C)NC(=O)[C@@H](NC(=O)[C@H](Cc1ccccc1)NC(=O)[C@H](CCC(=O)O)NC(=O)[C@H](CCCCN)NC(=O)[C@H](C)NC(=O)[C@H](C)NC(=O)[C@H](CCC(N)=O)NC(=O)CNC(=O)[C@H](CCC(=O)O)NC(=O)[C@H](CC(C)C)NC(=O)[C@H](Cc1ccc(O)cc1)NC(=O)[C@H](CO)NC(=O)[C@H](CO)NC(=O)[C@@H](NC(=O)[C@H](CC(=O)O)NC(=O)[C@H](CO)NC(=O)[C@@H](NC(=O)[C@H](Cc1ccccc1)NC(=O)[C@@H](NC(=O)CNC(=O)[C@H](CCC(=O)O)NC(=O)[C@H](C)NC(=O)[C@@H](N)Cc1cnc[nH]1)[C@@H](C)O)[C@@H](C)O)C(C)C)[C@@H](C)CC)C(C)C)C(=O)NCC(=O)N[C@@H](Cc1c[nH]c2ccccc12)C(=O)N[C@@H](CCCC)C(=O)N(C)[C@H](CC(=O)O)C(=O)N(C)[C@@H](Cc1ccccc1)C(N)=O`: in data set [1], the EC50 was 1.19 nM. Also, in data set [2], the concentration giving a half-maximal response (EC50) at 5 min is over 100 nM. Besides, the outcome with Mus musculus [3] and in the data set on Mus musculus [4] was Active.

Regarding `CC[C@H](C)[C@H](NC(=O)[C@H](CC(C)C)NC(=O)[C@H](Cc1c[nH]c2ccccc12)NC(=O)[C@H](CCC(=O)O)NC(=O)[C@@H](NC(=O)[C@H](Cc1ccccc1)NC(=O)[C@H](CCC(=O)O)NC(=O)[C@H](CCCCN)NC(=O)[C@H](C)NC(=O)[C@H](C)NC(=O)[C@H](CCC(=O)O)NC(=O)[C@H](CCC(=O)O)NC(=O)[C@H](CCC(=O)O)NC(=O)[C@H](CC(C)C)NC(=O)[C@@H](NC(=O)[C@H](CCC(=O)O)NC(=O)[C@@H](NC(=O)[C@@H](NC(=O)[C@H](CC(=O)O)NC(=O)[C@H](CC(N)=O)NC(=O)[C@@H](NC(=O)[C@H](Cc1ccc(O)cc1)NC(=O)[C@@H](NC(=O)CNC(=O)[C@H](CCC(=O)O)NC(=O)C(C)(C)NC(=O)[C@@H](N)Cc1cnc[nH]1)[C@@H](C)O)[C@@H](C)O)C(C)C)[C@@H](C)O)[C@@H](C)O)[C@@H](C)CC)C(=O)N[C@@H](CCCCN)C(=O)NCC(=O)N[C@@H](CCCCN)C(N)=O` (H-H[Aib]EGTYTNDVTETLEEEAAKEFIEWLIKGK-NH2), the concentration giving a half-maximal response (EC50) in data set [5] was 0.056 nM.

On to `CCCC[C@H](NC(=O)[C@H](Cc1ccc(CS(=O)(=O)O)cc1)NC(=O)[C@H](CC(=O)O)NC(=O)COCCOCCNC(=O)COCCOCCNC(=O)[C@H](CCCCN)NC(=O)CNC(=O)[C@H](CCCCN)NC(=O)[C@@H](NC(=O)[C@H](CC(C)C)NC(=O)[C@H](Cc1c[nH]c2ccccc12)NC(=O)[C@H](CCC(=O)O)NC(=O)[C@@H](NC(=O)[C@H](Cc1ccccc1)NC(=O)[C@H](CCC(=O)O)NC(=O)[C@H](CCCCN)NC(=O)[C@H](C)NC(=O)[C@H](C)NC(=O)[C@H](CCC(=O)O)NC(=O)[C@H](CCC(=O)O)NC(=O)[C@H](CCC(=O)O)NC(=O)[C@H](CC(C)C)NC(=O)[C@@H](NC(=O)[C@H](CCC(=O)O)NC(=O)[C@@H](NC(=O)[C@@H](NC(=O)[C@H](CC(=O)O)NC(=O)[C@H](CC(N)=O)NC(=O)[C@@H](NC(=O)[C@H](Cc1ccc(O)cc1)NC(=O)[C@@H](NC(=O)CNC(=O)[C@H](CCC(=O)O)NC(=O)C(C)(C)NC(=O)[C@@H](N)Cc1cnc[nH]1)[C@@H](C)O)[C@@H](C)O)C(C)C)[C@@H](C)O)[C@@H](C)O)[C@@H](C)CC)[C@@H](C)CC)C(=O)NCC(=O)N[C@@H](Cc1c[nH]c2ccccc12)C(=O)N[C@@H](CCCC)C(=O)N(C)[C@H](CC(=O)O)C(=O)N(C)[C@@H](Cc1ccccc1)C(N)=O`, for which the figures for the EC50 in data set [5] (hek293) and in data set [1] were 0.092 nM and 0.95 nM, respectively. Further, in data set [2], the 50% effective concentration (EC50) at 5 min was over 100 nM. Moreover, the outcome with Mus musculus [6], with Mus musculus [3] and with Mus musculus [4] was Active.

Regarding `CCCC[C@H](NC(=O)[C@H](Cc1ccc(CS(=O)(=O)O)cc1)NC(=O)[C@H](CC(=O)O)NC(=O)COCCOCCNC(=O)COCCOCCNC(=O)[C@H](CCCNC(=N)N)NC(=O)CNC(=O)[C@H](CCCCN)NC(=O)[C@@H](NC(=O)[C@H](CC(C)C)NC(=O)[C@H](Cc1c[nH]c2ccccc12)NC(=O)[C@H](C)NC(=O)[C@@H](NC(=O)[C@H](Cc1ccccc1)NC(=O)[C@H](CCC(=O)O)NC(=O)[C@H](CCCCN)NC(=O)[C@H](C)NC(=O)[C@H](C)NC(=O)[C@H](CCC(N)=O)NC(=O)CNC(=O)[C@H](CCC(=O)O)NC(=O)[C@H](CC(C)C)NC(=O)[C@H](Cc1ccc(O)cc1)NC(=O)[C@H](CO)NC(=O)[C@H](CO)NC(=O)[C@@H](NC(=O)[C@H](CC(=O)O)NC(=O)[C@H](CO)NC(=O)[C@@H](NC(=O)[C@H](Cc1ccccc1)NC(=O)[C@@H](NC(=O)CNC(=O)[C@H](CCC(=O)O)NC(=O)[C@H](C)NC(=O)[C@@H](N)Cc1cnc[nH]1)[C@@H](C)O)[C@@H](C)O)C(C)C)[C@@H](C)CC)C(C)C)C(=O)NCC(=O)N[C@@H](Cc1c[nH]c2ccccc12)C(=O)N[C@@H](CCCC)C(=O)N(C)[C@H](CC(=O)O)C(=O)N(C)[C@@H](Cc1ccccc1)C(N)=O`, in data set [1], the 50% effective concentration (EC50) is 1.14 nM. Further, the 50% effective concentration (EC50) at 5 min in data set [2] was over 100 nM. Also, the outcome in the data set on Mus musculus [6], in the data set with Mus musculus [3] and with Mus musculus [4] was Active.

Turning to `CCCC[C@H](NC(=O)[C@H](Cc1ccc(CS(=O)(=O)O)cc1)NC(=O)[C@H](CC(=O)O)NC(=O)COCCOCCNC(=O)COCCOCCNC(=O)[C@H](CCCCN)NC(=O)CNC(=O)[C@H](CCCCNC(=O)COCCOCCNC(=O)COCCOCCNC(=O)CC[C@H](NC(=O)CCCCCCCCCCCCCCCCC(=O)O)C(=O)O)NC(=O)[C@@H](NC(=O)[C@H](CC(C)C)NC(=O)[C@H](Cc1c[nH]c2ccccc12)NC(=O)[C@H](CCC(=O)O)NC(=O)[C@@H](NC(=O)[C@H](Cc1ccccc1)NC(=O)[C@H](CCC(=O)O)NC(=O)[C@H](CCCCN)NC(=O)[C@H](C)NC(=O)[C@H](C)NC(=O)[C@H](CCC(=O)O)NC(=O)[C@H](CCC(=O)O)NC(=O)[C@H](CCC(=O)O)NC(=O)[C@H](CC(C)C)NC(=O)[C@@H](NC(=O)[C@H](CCC(=O)O)NC(=O)[C@@H](NC(=O)[C@@H](NC(=O)[C@H](CC(=O)O)NC(=O)[C@H](CC(N)=O)NC(=O)[C@@H](NC(=O)[C@H](Cc1ccc(O)cc1)NC(=O)[C@@H](NC(=O)CNC(=O)[C@H](CCC(=O)O)NC(=O)C(C)(C)NC(=O)[C@@H](N)Cc1cnc[nH]1)[C@@H](C)O)[C@@H](C)O)C(C)C)[C@@H](C)O)[C@@H](C)O)[C@@H](C)CC)[C@@H](C)CC)C(=O)NCC(=O)N[C@@H](Cc1c[nH]c2ccccc12)C(=O)N[C@@H](CCCC)C(=O)N(C)[C@H](CC(=O)O)C(=O)N(C)[C@@H](Cc1ccccc1)C(N)=O`, the EC50 is 0.31 nM in data set [5] (hek293) and 1.03 nM in data set [1]. Further, the concentration for a half-maximal effect (EC50) at 5 min in data set [2] was over 100 nM. Also, the result in the data set with Mus musculus [6], in the data set on Mus musculus [3] and in the data set with Mus musculus [4] was Active.
